From US20240307350A1, “5-METHOXY-N,N-DIMETHYLTRYPTAMINE (5-MEO-DMT) FOR TREATING DEPRESSION” (GH RESEARCH IRELAND LIMITED, priority 2019, published 2024)

Tests used:
[1] = system: patients with personality trait disturbance or anxiety; settings: LSD as an aid to psychotherapy; cited from earlier work
[2] = system: patients with alcohol dependence; settings: therapy with LSD; cited from earlier work
[3] = Clinical trial in healthy volunteers: 5-MeO-DMT and bufotenine plasma levels; assay type: in vivo, human; settings: all other samples (1 hour and 3 hours) after inhaled 5-MeO-DMT
Procedure: A clinical trial was performed in which 5-MeO-DMT free base (purity not less than 99%) at different dose levels was administered via inhalation (as described in Example 1) in a single day to healthy volunteers who had prior experiences with the use of synthetic or naturally-occurring psychedelics. The trial was reviewed and approved by the relevant national competent authority and local medical ethics committee. The trial consisted of two parts: Part A, where single doses of 5-MeO-DMT dosage amounts of 2 mg, 6 mg, 12 mg and 18 mg were administered; and Part B, where an initial 5-MeO-DMT dosage amount of 6 mg was administered, and then, unless the participant had already experienced a peak psychedelic experience based on the PPEQ or the supervising physician had decided that further dose increases were inappropriate based on observed side effects, further subsequent dosage amounts of 12 mg and 18 mg were administered with about 3 hours in between each administration. Participants in Part A only received one dose and were not allowed to receive higher doses in later parts of Part A and were not allowed to participate in Part B. Participants were closely monitored for 3.5 hours after the last dose, with additional follow-up visits 1 day and 7 days after dosing. Various safety related measures (e.g., adverse event reporting, safety laboratory analyses, vital signs, ECG, CADSS, PVT, DSST, Prospective Memory Task (PMT)) as well as measures of the intensity of the psychedelic effects (MEQ30, ASC, PPEQ, subjective description of the psychedelic experience) were recorded. Pharmacokinetic analysis of 5-MeO-DMT and bufotenine plasma levels was performed at 1 hour and 3 hours after drug administration in Part A, and at 3 hours after drug administration in Part B.

5-HT2A receptor = 5-HT2A receptor (Homo sapiens, UniProt P28223); settings: compared with 5-MeO-DMT; cited from earlier work
5-HT2A receptor, sequence (P28223 whole entry): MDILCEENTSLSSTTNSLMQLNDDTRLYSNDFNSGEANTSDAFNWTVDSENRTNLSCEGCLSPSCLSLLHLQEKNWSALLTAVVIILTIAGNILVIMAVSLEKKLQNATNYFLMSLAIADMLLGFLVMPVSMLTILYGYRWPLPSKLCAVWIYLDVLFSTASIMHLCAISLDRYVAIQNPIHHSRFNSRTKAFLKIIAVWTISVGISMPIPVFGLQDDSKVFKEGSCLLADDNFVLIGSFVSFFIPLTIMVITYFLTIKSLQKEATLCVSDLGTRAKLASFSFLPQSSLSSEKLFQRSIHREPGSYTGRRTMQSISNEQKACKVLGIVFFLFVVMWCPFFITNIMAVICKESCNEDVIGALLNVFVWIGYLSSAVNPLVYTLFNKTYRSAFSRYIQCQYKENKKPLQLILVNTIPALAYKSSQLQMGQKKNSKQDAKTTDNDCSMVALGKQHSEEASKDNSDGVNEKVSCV

SMILES	patients with an outcome of "much improved" or "improved" [1]	patients changed (stop drinking or are much improved) [2]	plasma levels of the 5-MeO-DMT metabolite bufotenine [3]	affinity for the 5-HT2A receptor (5-HT2A receptor)
CCN(CC)C(=O)[C@@H]1C=C2c3cccc4[nH]cc(c34)C[C@H]2N(C)C1 [LSD, lysergic acid diethylamide]	over 90%	50%		
CN(C)CCc1c[nH]c2ccc(O)cc12 [bufotenine]			undetectable	much higher affinity than 5-MeO-DMT
